Experimental data published in US20240150345A1, “GCN2 MODULATING COMPOUNDS AND USES THEREOF” (HiberCell, Inc., priority 2021, published 2024).

Target: T1, GCN2 (Homo sapiens, UniProt Q9P2K8)
T1 construct: purchased Carma Biosciences (so in the source)
Assay: TR-FRET biochemical assay for inhibition of GCN2 activity
Conditions: 2 nM GCN2, 100 nM GFP-eIF2α, 150 μM ATP, 1.5 hours at 25° C.
Protocol: Exemplary compounds from the above Examples were tested for ability to inhibit GCN2 activity using a time resolved fluorescence energy transfer (TR-FRET) assay. Assay procedures and results are described below for Examples 12-105.
GCN2 protein was obtained from Carma Biosciences (cat #05-153). The protein was diluted in assay buffer (ThermoFisher Scientific, #PV6135), 2 mM dithiothreitol (DTT), to obtain a final concentration of 2 nM and 5 μL was plated in a 384-well white assay plate. Test compounds were serially diluted to 11 concentrations by 3-fold dilution in DMS0 and 10 nL of stock was plated into 384 well white assay plate. DMS0 was used as a vehicle control. GFP-eIF2α protein was obtained from ThermoFisher (cat #PV4809). The protein was diluted in assay buffer to a 2× concentration of 200 nM along with 300 μM ATP (final concentration of 100 nM GFP-eIF2α and 150 μM ATP) in the presence of 2 mM DTT and a […] was added to each well containing the GCN2 protein and test compound. The plate was incubated in the dark at 25° C. for 1.5 hours, shaking at 1250 rpm. Tb-anti P-eIF2α (ThermoFisher cat #PV4815) was diluted to a to a concentration of 1 nM in TR-FRET Dilution Buffer (ThermoFisher cat #PV3574). 10 μL of the Tb-anti P-eIF2a solution was added to the TR-FRET reaction. The plate was incubated in the dark for 2 h at 25° C. shaking at 600 rpm. The FRET signal from the plate was read on a Envision (PerkinElmer) plate reader: • Label 1: Excitation: 340 nm, bandwidth 30 nm; Emission: 495 nm, bandwidth 10 nm. Lag time: 100 μsec. Integration time: 400 μsec. Flashes: 30. • Label 2: Excitation: 340 nm, bandwidth 30 nm; Emission: 520 nm, bandwidth 25 nm. Lag time: 100 μsec. Integration time: 400 μsec. Flashes: 30
The data were analyzed using GraphPad Prism employing a 4-parameter sigmoidal curve fit.

T1 sequence (Q9P2K8 whole entry): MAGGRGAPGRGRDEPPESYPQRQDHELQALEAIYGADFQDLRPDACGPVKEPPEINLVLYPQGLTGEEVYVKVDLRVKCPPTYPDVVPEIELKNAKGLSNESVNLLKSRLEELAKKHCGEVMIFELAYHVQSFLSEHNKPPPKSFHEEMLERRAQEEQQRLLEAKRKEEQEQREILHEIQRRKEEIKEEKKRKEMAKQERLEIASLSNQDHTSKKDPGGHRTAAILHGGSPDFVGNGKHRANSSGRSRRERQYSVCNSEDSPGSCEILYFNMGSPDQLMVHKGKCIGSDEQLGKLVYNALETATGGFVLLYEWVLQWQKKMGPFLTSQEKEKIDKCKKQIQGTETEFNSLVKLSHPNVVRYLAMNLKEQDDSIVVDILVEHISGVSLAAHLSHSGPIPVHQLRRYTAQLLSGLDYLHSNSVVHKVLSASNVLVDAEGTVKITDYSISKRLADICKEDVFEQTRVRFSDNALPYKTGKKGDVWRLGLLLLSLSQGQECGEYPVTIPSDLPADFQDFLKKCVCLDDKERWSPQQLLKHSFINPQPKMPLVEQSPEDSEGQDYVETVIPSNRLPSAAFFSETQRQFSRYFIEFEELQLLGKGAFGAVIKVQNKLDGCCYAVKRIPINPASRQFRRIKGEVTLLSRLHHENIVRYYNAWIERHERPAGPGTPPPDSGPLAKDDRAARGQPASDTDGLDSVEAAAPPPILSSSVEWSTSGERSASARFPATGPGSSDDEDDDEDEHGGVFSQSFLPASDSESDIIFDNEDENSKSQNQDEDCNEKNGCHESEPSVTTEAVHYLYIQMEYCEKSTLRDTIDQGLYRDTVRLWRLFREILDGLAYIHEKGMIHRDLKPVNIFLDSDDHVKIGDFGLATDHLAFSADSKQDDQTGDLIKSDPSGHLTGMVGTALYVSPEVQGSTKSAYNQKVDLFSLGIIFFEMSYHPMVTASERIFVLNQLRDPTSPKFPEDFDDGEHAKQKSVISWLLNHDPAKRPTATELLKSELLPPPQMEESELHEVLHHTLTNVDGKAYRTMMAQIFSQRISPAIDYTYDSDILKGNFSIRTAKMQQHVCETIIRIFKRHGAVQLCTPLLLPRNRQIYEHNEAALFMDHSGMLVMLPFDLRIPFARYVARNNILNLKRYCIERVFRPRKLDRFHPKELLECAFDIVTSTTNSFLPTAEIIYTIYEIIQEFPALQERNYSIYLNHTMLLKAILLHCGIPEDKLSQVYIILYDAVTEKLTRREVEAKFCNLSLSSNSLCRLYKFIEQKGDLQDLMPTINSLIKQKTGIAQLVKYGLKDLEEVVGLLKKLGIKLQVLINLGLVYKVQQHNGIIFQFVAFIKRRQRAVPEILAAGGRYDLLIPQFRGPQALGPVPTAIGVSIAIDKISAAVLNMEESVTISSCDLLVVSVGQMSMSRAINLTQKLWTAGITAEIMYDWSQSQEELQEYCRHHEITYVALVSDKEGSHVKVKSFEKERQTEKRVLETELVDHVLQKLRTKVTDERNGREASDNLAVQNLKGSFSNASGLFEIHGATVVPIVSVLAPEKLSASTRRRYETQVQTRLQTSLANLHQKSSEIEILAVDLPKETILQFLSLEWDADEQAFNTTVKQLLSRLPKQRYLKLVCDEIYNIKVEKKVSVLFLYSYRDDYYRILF

COc1ncc(F)cc1S(=O)(=O)Nc1ccc(F)c(CCc2cnc3cn(C(C)C)nc3c2)c1F [Compound 37, N-[2,4-difluoro-3-(2-[2-isopropylpyrazolo[4,3-b]pyridin-6-yl]ethyl)phenyl]-5-fluoro-2-methoxypyridine-3-sulfonamide]
IC50: 0.05 to 0.5 µM

COc1ncc(F)cc1S(=O)(=O)Nc1ccc(F)c(COc2cnc3[nH]ncc3c2C#N)c1F [Compound 27, N-[3-[([4-cyano-1H-pyrazolo[3,4-b]pyridin-5-yl]oxy)methyl]-2,4-difluorophenyl]-5-fluoro-2-methoxypyridine-3-sulfonamide]
IC50: < 0.05 µM

COc1ncc(Cl)cc1S(=O)(=O)Nc1ccc(F)c(CCc2cnc3cnn(C(C)C)c3c2)c1F [Compound 35, 5-chloro-N-[2,4-difluoro-3-(2-[1-isopropylpyrazolo[4,3-b]pyridin-6-yl]ethyl)phenyl]-2-methoxypyridine-3-sulfonamide]
IC50: < 0.05 µM

COc1ncc(F)cc1S(=O)(=O)Nc1ccc(F)c(COc2cnc3[nH]nc(C)c3c2C2CC2)c1F [Compound 86, N-[3-[([4-cyclopropyl-3-methyl-1H-Pyrazolo[3,4-b]pyridin-5-yl]oxy)methyl]-2,4-difluorophenyl]-5-fluoro-2-methoxypyridine-3-sulfonamide]
IC50: 0.05 to 0.5 µM

COc1ncc(F)cc1S(=O)(=O)Nc1ccc(F)c(CCc2cnc3cnn(C(C)C)c3c2)c1F [Compound 36, N-[2,4-difluoro-3-(2-[1-isopropylpyrazolo[4,3-b]pyridin-6-yl]ethyl)phenyl]-5-fluoro-2-methoxypyridine-3-sulfonamide]
IC50: 0.05 to 0.5 µM

Cc1ncc(F)cc1S(=O)(=O)Nc1ccc(F)c(OCc2cnc3[nH]nc(C)c3c2)c1F [Compound 51, N-[2,4-difluoro-3-([3-methyl-1H-pyrazolo[3,4-b]pyridin-5-yl]methoxy)phenyl]-5-fluoro-2-methylpyridine-3-sulfonamide]
IC50: 0.05 to 0.5 µM

COc1ncc(F)cc1S(=O)(=O)Nc1ccnc(COc2cnc3[nH]nc(C)c3c2)c1F [Compound 63, 5-fluoro-N-[3-fluoro-2-[([3-methyl-1H-pyrazolo[3,4-b]pyridin-5-yl]oxy)methyl]pyridin-4-yl]-2-methoxypyridine-3-sulfonamide]
IC50: 0.05 to 0.5 µM

COc1ncc(Cl)cc1S(=O)(=O)Nc1ccc(F)c(CCc2cnc3cnn(C)c3c2)c1F [Compound 18, 5-chloro-N-[2,4-difluoro-3-(2-[1-methylpyrazolo[4,3-b]pyridin-6-yl]ethyl)phenyl]-2-methoxypyridine-3-sulfonamide]
IC50: < 0.05 µM

COc1ncc(F)cc1S(=O)(=O)Nc1ccc(F)c(COc2cnn3cnc(C(F)(F)F)c3c2)c1F [Compound 83, N-[2,4-difluoro-3-([[5-(trifluoromethyl)imidazo[1,5-b]pyridazin-3-yl]oxy]methyl)phenyl]-5-fluoro-2-methoxypyridine-3-sulfonamide]
IC50: < 0.05 µM

COc1ncc(Cl)cc1S(=O)(=O)Nc1ccc(F)c(OCc2cnc3[nH]nc(C)c3c2)c1F [Compound 46, 5-chloro-N-[2,4-difluoro-3-([3-methyl-1H-pyrazolo[3,4-b]pyridin-5-yl]methoxy)phenyl]-2-methoxypyridine-3-sulfonamide]
IC50: < 0.05 µM

COc1ncc(F)cc1S(=O)(=O)Nc1ccc(F)c(COc2cnc3[nH]nc(C(C)(F)F)c3c2)c1F [Compound 81, N-[3-([[3-(1,1-difluoroethyl)-1H-pyrazolo[3,4-b]pyridin-5-yl]oxy]methyl)-2,4-difluorophenyl]-5-fluoro-2-methoxypyridine-3-sulfonamide]
IC50: < 0.05 µM

CNC(=O)c1cc(CCc2c(F)ccc(NS(=O)(=O)c3cc(Cl)cnc3OC)c2F)[nH]n1 [Compound 8, 5-[2-[3-(5-chloro-2-methoxypyridine-3-sulfonamido)-2,6-difluorophenyl]ethyl]-N-methyl-1H-pyrazole-3-carboxamide]
IC50: < 0.05 µM

COc1ncc(F)cc1S(=O)(=O)Nc1ccc(F)c(COc2cnc3[nH]nc(C)c3c2)c1F [Compound 2, N-[2,4-difluoro-3-[([3-methyl-1H-pyrazolo[3,4-b]pyridin-5-yl]oxy)methyl]phenyl]-5-fluoro-2-methoxypyridine-3-sulfonamide]
IC50: < 0.05 µM

COc1ncc(Cl)cc1S(=O)(=O)Nc1ccc(F)c(NCc2cnc3[nH]nc(C)c3c2)c1F [Compound 58, 5-chloro-N-[2,4-difluoro-3-[([3-methyl-1H-pyrazolo[3,4-b]pyridin-5-yl]methyl)amino]phenyl]-2-methoxypyridine-3-sulfonamide]
IC50: < 0.05 µM

COc1ncc(F)cc1S(=O)(=O)Nc1ccc(F)c(COc2cnc3[nH]ncc3c2C)c1F [Compound 20, N-[2,4-difluoro-3-[([4-methyl-1H-pyrazolo[3,4-b]pyridin-5-yl]oxy)methyl]phenyl]-5-fluoro-2-methoxypyridine-3-sulfonamide]
IC50: 0.05 to 0.5 µM

COc1ncc(Cl)cc1S(=O)(=O)Nc1ccc(F)c(COc2cnn3cncc3c2)c1F [Compound 60, 5-chloro-N-(2,4-difluoro-3-((imidazo[1,5-b]pyridazin-3-yloxy)methyl)phenyl)-2-methoxypyridine-3-sulfonamide]
IC50: < 0.05 µM

COc1ncc(Cl)cc1S(=O)(=O)Nc1ccc(F)c(COc2cnc3[nH]nc(C(C)C)c3c2)c1F [Compound 53, 5-chloro-N-[2,4-difluoro-3-[([3-isopropyl-1H-pyrazolo[3,4-b]pyridin-5-yl]oxy)methyl]phenyl]-2-methoxypyridine-3-sulfonamide]
IC50: < 0.05 µM

COc1ncc(Cl)cc1S(=O)(=O)Nc1ccc(F)c(C(C)Nc2cnc3[nH]ncc3c2)c1F (stereo not drawn) [Compound 29, 5-chloro-N-[2,4-difluoro-3-(1-[1H-pyrazolo[3,4-b]pyridin-5-ylamino]ethyl)phenyl]-2-methoxypyridine-3-sulfonamide]
IC50: > 1 µM

COc1ncc(F)cc1S(=O)(=O)Nc1ccc(F)c(COc2cnc3[nH]c(=O)n(C)c3c2)c1F [Compound 71, N-[2,4-difluoro-3-[([1-methyl-2-oxo-3H-imidazo[4,5-b]pyridin-6-yl]oxy)methyl]phenyl]-5-fluoro-2-methoxypyridine-3-sulfonamide]
IC50: < 0.05 µM

COc1ncc(Cl)cc1S(=O)(=O)Nc1ccc(F)c(CCc2cnc3c(N)nccn23)c1F [Compound 32, N-[3-(2-[8-aminoimidazo[1,2-a]pyrazin-3-yl]ethyl)-2,4-difluorophenyl]-5-chloro-2-methoxypyridine-3-sulfonamide]
IC50: < 0.05 µM

COc1ncc(F)cc1S(=O)(=O)Nc1ccc(F)c(OCc2cnc3[nH]nc(C)c3c2)c1F [Compound 45, N-[2,4-difluoro-3-([3-methyl-1H-pyrazolo[3,4-b]pyridin-5-yl]methoxy)phenyl]-5-fluoro-2-methoxypyridine-3-sulfonamide]
IC50: < 0.05 µM

CCc1n[nH]c2ncc(OCc3c(F)ccc(NS(=O)(=O)c4cc(C#N)cnc4OC)c3F)cc12 [Compound 41, 5-cyano-N-[3-[([3-ethyl-1H-pyrazolo[3,4-b]pyridin-5-yl]oxy)methyl]-2,4-difluorophenyl]-2-methoxypyridine-3-sulfonamide]
IC50: < 0.05 µM

COc1ncc(F)cc1S(=O)(=O)Nc1ncc(F)c(COc2cnc3[nH]nc(C)c3c2)c1Cl [Compound 66, N-[3-chloro-5-fluoro-4-[([3-methyl-1H-pyrazolo[3,4-b]pyridin-5-yl]oxy)methyl]pyridin-2-yl]-5-fluoro-2-methoxypyridine-3-sulfonamide]
IC50: < 0.05 µM

COc1ncc(F)cc1S(=O)(=O)Nc1ccc(F)c(COc2cnc3[nH]nc(C)c3c2N2CCCCC2)c1F [Compound 94, N-(2,4-difluoro-3-(((3-methyl-4-(piperidin-1-yl)-1H-pyrazolo[3,4-b]pyridin-5-yl)oxy)methyl)phenyl)-5-fluoro-2-methoxypyridine-3-sulfonamide]
IC50: 0.05 to 0.5 µM

COc1ncc(F)cc1S(=O)(=O)Nc1ccc(F)c(COc2cnc3[nH]nc(C)c3c2C2CCN(C)CC2)c1F [Compound 93, N-(2,4-difluoro-3-(((3-methyl-4-(1-methylpiperidin-4-yl)-1H-pyrazolo[3,4-b]pyridin-5-yl)oxy)methyl)phenyl)-5-fluoro-2-methoxypyridine-3-sulfonamide]
IC50: > 1 µM

Cc1ncc(F)cc1S(=O)(=O)Nc1ccc(F)c(COc2cnc3[nH]ncc3c2)c1F [Compound 30, N-(3-(((1H-pyrazolo[3,4-b]pyridin-5-yl)oxy)methyl)-2,4-difluorophenyl)-5-fluoro-2-methylpyridine-3-sulfonamide]
IC50: < 0.05 µM

COc1ncc(F)cc1S(=O)(=O)Nc1ncc(F)c(COc2cnc3[nH]nc(C)c3c2)c1F [Compound 56, N-[3,5-difluoro-4-[([3-methyl-1H-pyrazolo[3,4-b]pyridin-5-yl]oxy)methyl]pyridin-2-yl]-5-fluoro-2-methoxypyridine-3-sulfonamide]
IC50: < 0.05 µM
